Measured values as given in patent US20110136145A1, “METHODS FOR PROMOTING FUSION AND REPROGRAMMING OF SOMATIC CELLS” (THE JOHNS HOPKINS UNIVERSITY, priority 2008, published 2011).
“Also recorded” adds a separate entry of the source.

Test system: ESC-induced Oct4-GFP re-activation in NSCs
Experiment: CLEAR analysis of ESC fusion-induced reprogramming (PEG-induced fusion of Z-Red ESCs and CIPOE NSCs, flow cytometry)
From the text: CLEAR strategy uses engineered ESCs and NSCs for monitoring fusion-induced DsRed expression and reprogramming-induced GFP expression (FIG. 1A). Z-Red ESCs were derived from a clonal ESC line containing one copy of a transgene (CAG-loxP-LacZ::neomycin-polyA-loxP-DsRed.T3) as a Cre recombination excision reporter.
Adult NSCs were isolated from Oct4-GFP (GOF 18-A PE-EGFP) transgenic mice and transduced by retroviruses to stably co-express Cre and the puromycin resistance gene through a bicistronic cassette (termed CIPOE NSCs hereafter). Somatic cells with Oct4-GFP transgene integration have been used previously to investigate reprogramming, in which the regulatory elements of Oct4 direct reliable GFP reactivation from somatic genomes in reprogrammed ESC-like hybrid cells (also see FIG. 3). Multiple CIPOE NSC lines from Oct4-GFP transgenic mice were established, characterized and used for subsequent cell fusion experiments.
To quantitatively analyze the reprogramming-induced Oct4-GFP re-activation, dual-color flow cytometry was used to display and measure the cell population that underwent PEG-induced cell fusion. Viable cells were identified by their typical FSC (Forward Scatter) and SSC (Side Scatter) properties. To ensure appropriate gating for […] and DsRed+ events and to compensate the spectrum crossover of GFP and DsRed signals, the system was first calibrated using multiple control cells, including Z-Red ESCs, CIPOE NSCs, mixed Z-Red ESCs and CIPOE NSCs without PEG. Z-Red ESCs transfected with a constitutive Cre expression plasmid, and CIPOE NSCs transfected with a Cre excision reporter plasmid (FIG. 4A).
ESC fusion-induced Oct4 re-activation from NSCs was quantitatively measured using two different approaches. In the first approach, the reprogramming frequency (Rf) is determined by the ratio of GFP DsRed+ cells to total DsRed+ cells. […] In the second approach, the reprogramming efficacy is determined by the distribution of GFP fluorescence intensities of individual cells from the DsRed+ population (FIG. 4C). This analysis provides a measurement of the efficiency of Oct4-GFP re-activation in NSCs after successful fusion.
The protocol was optimized for PEG-induced cell fusion between ESCs and NSCs to achieve maximum efficiency and minimal toxicity. Equal numbers of ESCs and NSCs were mixed thoroughly and spun down in PBS. The pellet was loosened by gentle tapping and 50% PEG (500 μl for 1×10^7 cells) was added to the cells continuously over one minute while swirling the mixture in 37° C. water bath Next, 2 ml of ESC medium was layered on top of PEG-cell mixture and one-minute incubation in 37° C., followed by low-speed centrifugation at 1,800 rpm for 5 minutes. After removing the supernatant, the pellet was incubated with ESC medium for one minute, washed, resuspended and plated onto gelatin-coated dishes and grown in Dubelcco's Modified Eagle's Medium, 15% fetal bovine serum supplemented with mouse leukemia inhibitory factor (ESGRO), 0.1 mM nonessential amino acids, 0.1 mM β-mercaptoethanol, and 50 U/ml penicillin/50 μg/ml streptomycin (ESC medium). […] The following pharmacological inhibitors were applied in ESC-fusion experiments only during the first 48 hours after fusion. DMOG (5-10 μM; BioMol), Anacardic acid (5-10 μM; Calbiochem), Trichostatin A (TSA, 100 nM-1 μM; Sigma) and azidothymidine (AZT, 1-5 μM; Sigma).

[1] = 10 μM, 48-hour treatment, analyzed at day 4, vs DMSO

COC(=O)CNC(=O)C(=O)OC [DMOG, dimethyloxalylglycine]
Effects (on reprogramming) (5 μM, applied only during the first 48 hours after fusion): strong reprogramming deficit | reprogramming efficacy [1]: significant decreases | reprogramming frequency [1]: significant decreases | ESC-induced Oct4 re-activation in NSCs (inhibitor treatment after fusion): considerably reduced; also recorded: attenuates
